Columns and labels:
Format in all cases: cell-based
[1] = tested on: Epstein-Barr virus (EBV) reactivation in 1A2 cell line (lymphoma); test: EBV reactivation by romidepsin in 1A2 cell line (BZLF1/BRLF1 mRNA); settings: romidepsin 1 or 10 nM, 72 hours
Method: (§1) EBV-positive cell lines other than SNK6 and NK92MI were collected to identify EBV reactivity by romidepsin and the effect of sildenafil. As EBV-positive cell lines, the Daudi cell line (ATCC, CCL-213) and Raji cell line (ATCC, CCL-86), which are Burkitt's lymphoma cells, and the 1A2 cell line (ATCC, CRL-8119), which is a lymphoma cell, were treated with 1 or 10 nM of romidepsin for 72 hours, and mRNA expression of BZLF1 and BRLF1, genes whose expression is increased in EBV reactivation, was identified. The results for BZLF1 mRNA expression of the Daudi cell line are shown in FIG. 3A, and the results for BRLF1 mRNA expression are shown in FIG. 3B. In addition, the results for BZLF1 mRNA expression of the Raji cell line are shown in FIG. 3C, and the results for BRLF1 mRNA expression are shown in FIG. 3D. In addition, the results for BZLF1 mRNA expression of the 1A2 cell line are shown in FIG. 3E, and the results for BRLF1 mRNA expression are shown in FIG. 3F.

[2] = tested on: Epstein-Barr virus (EBV) reactivation in Daudi cell line (Burkitt's lymphoma); test: EBV reactivation by romidepsin in Daudi cell line (BZLF1/BRLF1 mRNA, EBV copy number); settings: sildenafil 100 nM + romidepsin 10 nM simultaneously, 72 hours, versus romidepsin alone
Method: as §1
When sildenafil and romidepsin were simultaneously treated in the Daudi cell line, which is a cell line showing EBV reactivation by romidepsin identified in Example 3.1, an experiment was performed to determine whether EBV reactivation by romidepsin was inhibited. In the Daudi cell line, a group treated with 10 nM of romidepsin and 100 nM of sildenafil separately for 72 hours and a group treated therewith simultaneously were used as experimental groups, and a group treated with DMSO only was used as a control group. In order to measure the EBV copy number secreted out of the cell by EBV reactivation, by extracting DNA from the medium and measuring the Ct value by real-time PCR and comparing the same with the reference EBV number, the EBV copy number was measured and shown in FIG. 4A. In the same manner as in Example 3.1, BZLF1 mRNA expression was measured and shown in FIG. 4B, and BRLF1 mRNA was measured and shown in FIG. 4C.

NK92MI cells = test: Cell growth/viability by counting live cells through trypan blue staining, NK92MI; settings: sildenafil 100 nM + romidepsin 10 nM, 72 hours; versus romidepsin alone
Method: (§2) The inhibition of EBV reactivation by sildenafil (100 nM, 72 hours), which was shown by treatment with 10 nM of romidepsin in SNK6 and NK92MI cell lines for 72 hours, was measured through EBV copy number, BALF5, BZLF1, and BRLF1 expression. In addition, cell growth was measured by counting live cells through trypan blue staining. BALF5 is a gene with the function of generating viral DNA produced through EBV reactivation. DNA was extracted from the medium using QIAamp DNA mini kit (Qiagen) and real-time quantitative PCR was performed to measure […]. […] The results of measuring the number of EBV copies in the SNK6 cells identified as described above are shown in FIG. 5A, the expression of BZLF1 mRNA is shown in FIG. 5B, the expression of BRLF1 mRNA is shown in FIG. 5C, and the survival rate of tumor cells is shown in FIG. 5D. In addition, the expression of BRLF5 mRNA in NK92MI cells is shown in FIG. 6A, the expression of BZLF1 mRNA is shown in FIG. 6B, the expression of BRLF1 mRNA is shown in FIG. 6C, and the survival rate of tumor cells is shown in FIG. 6D.

[3] = tested on: Epstein-Barr virus (EBV) reactivation in NK-cell leukemia cell line NK92MI; test: EBV reactivation by romidepsin in NK92MI cells (real-time PCR of BZLF1/BRLF1/BALF5); settings: 72 hours
Method: (§3) The NK/T-cell lymphoma cell line SNK6 (source; Seoul National University) and the NK-cell leukemia cell line NK92MI (source; Seoul National University) were treated with the HDAC inhibitor, romidepsin 10 nM, and the PDE5 inhibitor, sildenafil 100 nM, for 24, 48, and 72 hours. After treatment, cells were harvested […]. Then, RNA was extracted using TRIzol reagent (Ambion, Life technologies), cDNA synthesis was performed using Omniscript RT kit (Qiagen), and the expression of BZLF1, an mRNA expressed during EBV reactivation, was identified through real-time PCR. The group treated with DMSO only was used as a control group.
(§4) BZLF1 mRNA expression was measured in the same manner as in Example 1, with a group treated with sildenafil alone and a group treated with 10 nM of romidepsin simultaneously at a concentration of sildenafil of 10, 100 or 1000 nM in SNK6 and NK92MI cells as experimental groups. The treatment time was 72 hours.
as §2

[4] = tested on: Epstein-Barr virus (EBV) reactivation in NK/T-cell lymphoma cell line SNK6; test: EBV reactivation by romidepsin in SNK6 cells (real-time PCR of BZLF1/BRLF1 mRNA, EBV copy number)
Method: as §3, §4, §2
BZLF1 and BRLF1 mRNA expressions were identified and measured by qPCR in the same manner as in Example 3.1 that EBV reactivation, which was shown by treatment of 10 nM of romidepsin in the SNK6 cell line, was inhibited by the PDE5 inhibitors of vardenafil, udenafil or tadalafil. In this connection, vardenafil was treated with 100 nM for 72 hours, udenafil was treated with 100 nM for 48 hours, and tadalafil was treated with 1000 nM for 24 hours. The expression of BZLF1 mRNA in the vardenafil-administered group is shown in FIG. 7A, and the expression of BRLF1 mRNA is shown in FIG. 7B. In addition, the expression of BZLF1 mRNA in the udenafil-administered experimental group is shown in FIG. 7C, and the expression of BRLF1 mRNA is shown in FIG. 7D. In addition, the expression of BZLF1 mRNA in the tadalafil-administered experimental group is shown in FIG. 7E, and the expression of BRLF1 mRNA is shown in FIG. 7F.

SNK6 cells = test: Cell growth/viability by counting live cells through trypan blue staining, SNK6; settings: sildenafil 100 nM + romidepsin 10 nM, 72 hours; versus romidepsin alone
Method: as §2

[5] = NK92MI cell line, sildenafil 100 nM + romidepsin 10 nM, versus romidepsin alone
[6] = SNK6 cell line, sildenafil 100 nM + romidepsin 10 nM, 72 hours, versus romidepsin alone
[7] = SNK6 cell line, udenafil 100 nM for 48 hours with romidepsin 10 nM

SMILES: C/C=C1\NC(=O)[C@H]2CSSCC/C=C/[C@H](CC(=O)N[C@H](C(C)C)C(=O)N2)OC(=O)[C@H](C(C)C)NC1=O [romidepsin]
- expression of BRLF1 mRNA [1]: increased
- expression of BZLF1 mRNA [1]: only the expression of BRLF1 was increased

SMILES: CCCc1nn(C)c2c(=O)[nH]c(-c3cc(S(=O)(=O)N4CCN(C)CC4)ccc3OCC)nc12 [sildenafil]
- EBV copy number (DNA from the medium) [2]: no significant difference
- expression of BRLF1 mRNA [2]: no significant difference
- expression of BZLF1 mRNA [2]: no significant difference
- viability of the NK92MI cell line (trypan blue) (NK92MI cells): decreased
- expression of BALF5 [3, 5]: decreased
- expression of BRLF1 mRNA [3, 5]: decreased
- expression of BZLF1 mRNA ([3]; NK92MI cells, sildenafil 100 nM together with romidepsin 10 nM, compared to romidepsin alone): significantly decreased
- inhibition of EBV reactivation by romidepsin (BZLF1 mRNA expression) ([3]; NK92MI cells, sildenafil 10, 100 or 1000 nM in combination with romidepsin 10 nM): the effect of inhibiting the reactivation of EBV by romidepsin was observed
- EBV copy number [4, 6]: decreased
- expression of BRLF1 mRNA [4, 6]: decreased
- expression of BZLF1 mRNA ([4]; SNK6 cells, sildenafil 100 nM together with romidepsin 10 nM, 72 hours, compared to romidepsin alone): significantly decreased
- inhibition of EBV reactivation by romidepsin (BZLF1 mRNA expression) ([4]; SNK6 cells, sildenafil 10, 100 or 1000 nM in combination with romidepsin 10 nM, 72 hours): the effect of inhibiting the reactivation of EBV by romidepsin was observed
- viability of the SNK6 cell line (trypan blue) (SNK6 cells): decreased

SMILES: CCCOc1ccc(S(=O)(=O)NCCC2CCCN2C)cc1-c1nc2c(CCC)nn(C)c2c(=O)[nH]1 (centres unmarked) [udenafil]
- BRLF1 mRNA expression [4, 7]: decreased
- BZLF1 mRNA expression [4, 7]: decreased

Reference: patent US20230106238A1, “PHARMACEUTICAL COMPOSITION FOR PREVENTING OR TREATING NK/T-CELLLYMPHOMA OR NK-CELL LEUKEMIA, COMPRISING PHOSPHODIESTERASE TYPE 5 INHIBITOR” (SAMSUNG LIFE PUBLIC WELFARE FOUNDATION, priority 2020, published 2023)
